In patent publication US20190322676A1, “CERAMIDE GALACTOSYLTRANSFERASE INHIBITORS FOR THE TREATMENT OF DISEASE” (BioMarin Pharmaceutical Inc., priority 2016, published 2019):
Counter-ions that a name gives are not always drawn.

biological target: T1, human CGT (ceramide galactosyltransferase), CHO/CGT lysate (Homo sapiens, UniProt Q16880); test: CGT enzyme assay, RapidFire/MS/MS readout with 0.01% Tween added (Table 1 ranges with two asterisks **); assay type: biochemical; conditions: CGT enzymatic assay; range with two asterisks (**): RapidFire/MS/MS method with 0.01% Tween added
T1 construct: Full-length human CGT cDNA was cloned into the BamH1/Xho1 site of pcDNA3.1 (+); expressed in transfected cells; host or cells: Chinese hamster ovary (CHO) cells; lysate prepared with M-PER
T1 sequence (Q16880 21-541): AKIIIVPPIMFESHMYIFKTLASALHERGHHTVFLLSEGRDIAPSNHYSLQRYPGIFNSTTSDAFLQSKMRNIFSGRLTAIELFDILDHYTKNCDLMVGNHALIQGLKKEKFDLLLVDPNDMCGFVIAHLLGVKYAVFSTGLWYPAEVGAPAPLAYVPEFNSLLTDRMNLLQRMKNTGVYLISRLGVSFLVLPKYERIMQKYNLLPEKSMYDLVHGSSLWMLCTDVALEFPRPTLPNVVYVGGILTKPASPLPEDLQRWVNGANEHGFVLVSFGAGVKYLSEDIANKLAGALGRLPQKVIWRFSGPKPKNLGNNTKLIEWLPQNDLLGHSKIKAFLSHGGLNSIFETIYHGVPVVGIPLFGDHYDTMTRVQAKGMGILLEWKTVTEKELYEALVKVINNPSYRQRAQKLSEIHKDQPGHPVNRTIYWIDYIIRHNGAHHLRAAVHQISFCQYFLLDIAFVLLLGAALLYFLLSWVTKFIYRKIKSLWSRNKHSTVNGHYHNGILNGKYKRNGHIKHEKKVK
In short: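 IC50s come from variable-slope dose-response fits of internal-standard-normalized C6-NBD-dihydro-galactosylceramide, measured by RapidFire/MS/MS (ESI negative). Reactions: 1 h, 37 °C, human CGT-expressing CHO lysate (4 μg), 0.001–50 μM compound, 10 μM NBD-dihydro-ceramide, 17.5 μM UDP-galactose, 0.5% DMSO, pH 7.2; 0.01% Tween 80 added for ** values.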

IC50 [µM]	SMILES
1 to 10	NC1CCN(C(=O)[C@@H](NS(=O)(=O)c2cc3ccc(OC4CCCC4)cc3s2)C(F)(F)c2ccc(-c3ccc(Cl)cc3)cc2)CC1 [Compound 164-1, (R)—N-(3-(4-aminopiperidin-1-yl)-1-(4′-chloro-[1,1′-biphenyl]-4-yl)-1,1-difluoro-3-oxopropan-2-yl)-6-(cyclopentyloxy)benzo[b]thiophene-2-sulfonamide]
1 to 10	NC1CCN(C(=O)[C@H](NS(=O)(=O)c2cc3ccc(OC4CCCC4)cc3s2)C(F)(F)c2ccc(-c3ccc(Cl)cc3)cc2)CC1 [Compound 164-2, (S)—N-(3-(4-aminopiperidin-1-yl)-1-(4′-chloro-[1,1′-biphenyl]-4-yl)-1,1-difluoro-3-oxopropan-2-yl)-6-(cyclopentyloxy)benzo[b]thiophene-2-sulfonamide]
30 to 100	NC1CCN(C(=O)[C@H](NS(=O)(=O)c2ccc(COC3CCCCC3)s2)C(F)(F)c2ccc(-c3ccc(Cl)cc3)cc2)CC1 [Compound 165-1, (S)—N-(3-(4-aminopiperidin-1-yl)-1-(4′-chloro-[1,1′-biphenyl]-4-yl)-1,1-difluoro-3-oxopropan-2-yl)-5-((cyclohexyloxy)methyl)thiophene-2-sulfonamide trifluoroacetate]
30 to 100	NC1CCN(C(=O)[C@@H](NS(=O)(=O)c2ccc(COC3CCCCC3)s2)C(F)(F)c2ccc(-c3ccc(Cl)cc3)cc2)CC1 [Compound 165-2, (R)—N-(3-(4-aminopiperidin-1-yl)-1-(4′-chloro-[1,1′-biphenyl]-4-yl)-1,1-difluoro-3-oxopropan-2-yl)-5-((cyclohexyloxy)methyl)thiophene-2-sulfonamide trifluoroacetate]
1 to 10	C=C(c1ccc(C(F)(F)[C@H](NS(=O)(=O)c2ccc3cc(OC4CCCC4)ccc3c2)C(=O)N2CCC(N)CC2)cc1)C(F)(F)F [Compound 166-1, (R)—N-(3-(4-aminopiperidin-1-yl)-1,1-difluoro-3-oxo-1-(4-(3,3,3-trifluoroprop-1-en-2-yl)phenyl)propan-2-yl)-6-(cyclopentyloxy)naphthalene-2-sulfonamide]
1 to 10	C=C(c1ccc(C(F)(F)[C@@H](NS(=O)(=O)c2ccc3cc(OC4CCCC4)ccc3c2)C(=O)N2CCC(N)CC2)cc1)C(F)(F)F [Compound 166-2, (S)—N-(3-(4-aminopiperidin-1-yl)-1,1-difluoro-3-oxo-1-(4-(3,3,3-trifluoroprop-1-en-2-yl)phenyl)propan-2-yl)-6-(cyclopentyloxy) naphthalene-2-sulfonamide]
1 to 10	NC1CCN(C(=O)[C@@H](NS(=O)(=O)c2ccc3cc(OC4CCCC4)ccc3c2)C(F)(F)c2ccc(Cl)c(OC3CC3)c2)CC1 [Compound 168-1, (R)—N-(3-(4-aminopiperidin-1-yl)-1-(4-chloro-3-cyclopropoxyphenyl)-1,1-difluoro-3-oxopropan-2-yl)-6-(cyclopentyloxy)naphthalene-2-sulfonamide trifluoroacetate]
10 to 30	NC1CCN(C(=O)[C@H](NS(=O)(=O)c2ccc3cc(OC4CCCC4)ccc3c2)C(F)(F)c2ccc(Cl)c(OC3CC3)c2)CC1 [Compound 168-2, (S)—N-(3-(4-aminopiperidin-1-yl)-1-(4-chloro-3-cyclopropoxyphenyl)-1,1-difluoro-3-oxopropan-2-yl)-6-(cyclopentyloxy) naphthalene-2-sulfonamide trifluoroacetate]
< 1	CCCOc1cc(C(F)(F)[C@H](NS(=O)(=O)c2ccc3cc(OC4CCCC4)ccc3c2)C(=O)N2CCC(N)CC2)ccc1Cl [Compound 169-1, (R)—N-(3-(4-aminopiperidin-1-yl)-1-(4-chloro-3-propoxyphenyl)-1,1-difluoro-3-oxopropan-2-yl)-6-(cyclopentyloxy)naphthalene-2-sulfonamide trifluoroacetate]
1 to 10	CCCOc1cc(C(F)(F)[C@@H](NS(=O)(=O)c2ccc3cc(OC4CCCC4)ccc3c2)C(=O)N2CCC(N)CC2)ccc1Cl [Compound 169-2, (S)—N-(3-(4-aminopiperidin-1-yl)-1-(4-chloro-3-propoxyphenyl)-1,1-difluoro-3-oxopropan-2-yl)-6-(cyclopentyloxy) naphthalene-2-sulfonamide trifluoroacetate]
1 to 10	NC1CCN(C(=O)[C@@H](NS(=O)(=O)c2ccc3cc(OC4CCCC4)ccc3c2)C(F)(F)c2ccc(Cl)c(OC3CCCC3)c2)CC1 [Compound 170-1, (R)—N-(3-(4-aminopiperidin-1-yl)-1-(4-chloro-3-(cyclopentyloxy)phenyl)-1,1-difluoro-3-oxopropan-2-yl)-6-(cyclopentyloxy)naphthalene-2-sulfonamide trifluoroacetate]
10 to 30	NC1CCN(C(=O)[C@H](NS(=O)(=O)c2ccc3cc(OC4CCCC4)ccc3c2)C(F)(F)c2ccc(Cl)c(OC3CCCC3)c2)CC1 [Compound 170-2, (S)—N-(3-(4-aminopiperidin-1-yl)-1-(4-chloro-3-(cyclopentyloxy)phenyl)-1,1-difluoro-3-oxopropan-2-yl)-6-(cyclopentyloxy) naphthalene-2-sulfonamide trifluoroacetate]
1 to 10	N[C@H]1CCN(C(=O)[C@@H](NS(=O)(=O)c2ccc(OCC3CCCCC3)cc2)C(F)(F)c2ccc(-c3ccc(Cl)cc3)cc2)C1 [Compound 171-1, N—((R)-3-((S)-3-aminopyrrolidin-1-yl)-1-(4′-chloro-[1,1′-biphenyl]-4-yl)-1,1-difluoro-3-oxopropan-2-yl)-4-(cyclohexylmethoxy)benzenesulfonamide trifluoroacetate]
30 to 100	N[C@H]1CCN(C(=O)[C@H](NS(=O)(=O)c2ccc(OCC3CCCCC3)cc2)C(F)(F)c2ccc(-c3ccc(Cl)cc3)cc2)C1 [Compound 171-2, N—((S)-3-((S)-3-aminopyrrolidin-1-yl)-1-(4′-chloro-[1,1′-biphenyl]-4-yl)-1,1-difluoro-3-oxopropan-2-yl)-4-(cyclohexylmethoxy) benzenesulfonamide trifluoroacetate]
1 to 10	CC(C)Oc1cc(C(F)(F)[C@H](NS(=O)(=O)c2ccc3cc(OC4CCCC4)ccc3c2)C(=O)N2CCC(N)CC2)ccc1Cl [Compound 172-1, (R)—N-(3-(4-aminopiperidin-1-yl)-1-(4-chloro-3-isopropoxyphenyl)-1,1-difluoro-3-oxopropan-2-yl)-6-(cyclopentyloxy)naphthalene-2-sulfonamide trifluoroacetate]
10 to 30	CC(C)Oc1cc(C(F)(F)[C@@H](NS(=O)(=O)c2ccc3cc(OC4CCCC4)ccc3c2)C(=O)N2CCC(N)CC2)ccc1Cl [Compound 172-2, (S)—N-(3-(4-aminopiperidin-1-yl)-1-(4-chloro-3-isopropoxyphenyl)-1,1-difluoro-3-oxopropan-2-yl)-6-(cyclopentyloxy) naphthalene-2-sulfonamide trifluoroacetate]
30 to 100	NC(=O)C1CCN(C(=O)[C@H](NS(=O)(=O)c2ccc3cc(OC4CCCC4)ccc3c2)C(F)(F)c2ccc(-c3ccc(Cl)cc3)cc2)CC1 [Compound 173-2, (S)-1-(3-(4′-chloro-[1,1′-biphenyl]-4-yl)-2-((6-(cyclopentyloxy)naphthalene)-2-sulfonamido)-3,3-difluoropropanoyl)piperidine-4-carboxamide]
1 to 10	NC(=NO)C1CCN(C(=O)[C@@H](NS(=O)(=O)c2ccc3cc(OC4CCCC4)ccc3c2)C(F)(F)c2ccc(-c3ccc(Cl)cc3)cc2)CC1 [Compound 174-1, (R)-1-(3-(4′-chloro-[1,1′-biphenyl]-4-yl)-2-((6-(cyclopentyloxy)naphthalene)-2-sulfonamido)-3,3-difluoropropanoyl)-N′-hydroxypiperidine-4-carboximidamide]

SMILES	IC50 [µM]
NC1CC2CCC(C1)N2C(=O)[C@@H](NS(=O)(=O)c1cc2ccc(OC3CCCC3)cc2s1)C(F)(F)c1ccc(Br)cc1 (stereo partly drawn) [Compound 167-1, N-((2R)-3-(3-amino-8-azabicyclo[3.2.1]octan-8-yl)-1-(4-bromophenyl)-1,1-difluoro-3-oxopropan-2-yl)-6-(cyclopentyloxy)benzo[b]thiophene-2-sulfonamide trifluoroacetate]	1 to 10
NC1CC2CCC(C1)N2C(=O)[C@H](NS(=O)(=O)c1cc2ccc(OC3CCCC3)cc2s1)C(F)(F)c1ccc(Br)cc1 (stereo partly drawn) [Compound 167-2, N-((2 S)-3-(3-amino-8-azabicyclo[3.2.1]octan-8-yl)-1-(4-bromophenyl)-1,1-difluoro-3-oxopropan-2-yl)-6-(cyclopentyloxy)benzo[b]thiophene-2-sulfonamide trifluoroacetate]	1 to 10
NC(=O)C1CCN(C(=O)[C@@H](NS(=O)(=O)c2ccc3cc(OC4CCCC4)ccc3c2)C(F)(F)c2ccc(-c3ccc(Cl)cc3)cc2)CC1 [Compound 173-1, (R)-1-(3-(4′-chloro-[1,1′-biphenyl]-4-yl)-2-((6-(cyclopentyloxy)naphthalene)-2-sulfonamido)-3,3-difluoropropanoyl)piperidine-4-carboxamide]	1 to 10
